According to ChEMBL document CHEMBL1201862, “PubChem BioAssay data set” (2004):
The source made the active and inactive calls.

Tests used:
Beta-galactosidase = Beta-galactosidase (Escherichia coli, UniProt Q8VNN2); experiment: PubChem AID 485352; assay type: functional
[1] = biological target: T1, Type-1 angiotensin II receptor (Homo sapiens, UniProt P30556); experiment: antagonism of angiotensin II type 1 receptor – cell-based, uHTS hits, selectivity assay for APJ receptor antagonist project, dose response (AID 463214); assay type: functional;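 also: antagonist potency against angiotensin II stimulated AT1 response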
T1 sequence (P30556 whole entry): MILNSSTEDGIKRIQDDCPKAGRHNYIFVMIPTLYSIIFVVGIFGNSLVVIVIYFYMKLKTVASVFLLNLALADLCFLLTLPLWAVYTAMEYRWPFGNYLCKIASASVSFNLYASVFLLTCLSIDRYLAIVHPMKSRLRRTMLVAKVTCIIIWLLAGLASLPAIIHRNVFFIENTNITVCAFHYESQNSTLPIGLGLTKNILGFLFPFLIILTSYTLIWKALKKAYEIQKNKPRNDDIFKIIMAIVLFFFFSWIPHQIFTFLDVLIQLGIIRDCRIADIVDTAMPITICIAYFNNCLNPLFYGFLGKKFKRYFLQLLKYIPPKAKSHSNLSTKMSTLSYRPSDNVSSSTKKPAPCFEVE

[2] = biological target: T2, RNA-binding protein pos-1 (Caenorhabditis elegans, UniProt G5EF15); experiment: disruptors of C. elegans POS-1 RNA interaction – biochemical, fluorescence polarization, dose response (AID 1964);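 also: purified POS-1 fused to maltose binding protein made in E. coli; potency of compounds blocking POS-1 binding to fluorescent RNA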
T2 sequence (G5EF15 whole entry): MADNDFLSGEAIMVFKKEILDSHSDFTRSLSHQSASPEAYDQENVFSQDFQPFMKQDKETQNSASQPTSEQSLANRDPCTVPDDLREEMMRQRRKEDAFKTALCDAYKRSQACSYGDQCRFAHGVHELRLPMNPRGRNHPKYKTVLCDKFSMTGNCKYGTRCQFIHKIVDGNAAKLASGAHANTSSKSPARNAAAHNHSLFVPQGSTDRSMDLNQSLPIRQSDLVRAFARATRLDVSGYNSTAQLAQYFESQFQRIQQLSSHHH

[3] = biological target: Hepatocyte nuclear factor 4-alpha (Homo sapiens, UniProt P41235); assay type: functional, cell-based;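 also: biochemical luminescence-based dose-response counterscreen measuring inhibition of HNF4 dimerization, run alongside a screen for blockers of ABHD5–perilipin-5 interaction; split luciferase complementation of HNF4 fusion proteins in cell lysate measuring dimerization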
[4] = biological target: T3, Endoribonuclease toxin MazF (Escherichia coli K-12, UniProt P0AE70); experiment: activation of MazEF endoribonuclease cleavage – biochemical, fluorescence, single-stranded RNA substrate, uHTS hits, dose response (AID 588481); assay type: functional
T3 sequence (P0AE70 whole entry): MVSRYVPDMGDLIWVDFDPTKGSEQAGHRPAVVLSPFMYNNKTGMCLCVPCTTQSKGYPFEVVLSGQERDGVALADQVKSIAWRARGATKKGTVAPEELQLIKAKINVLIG

[5] = biological target: T3, Endoribonuclease toxin MazF; experiment: substrate-only fluorescence increase artefacts – biochemical, single-stranded RNase substrate, counter-screen for MazEF activator project, dose response (AID 588502); assay type: functional
[6] = biological target: T4, Zinc finger protein mex-5 (Caenorhabditis elegans, UniProt Q9XUB2); experiment: potency of MEX-5 RNA-binding blockers – biochemical, C. elegans, fluorescence polarization, dose response (AID 1960)
T4 sequence (Q9XUB2 whole entry): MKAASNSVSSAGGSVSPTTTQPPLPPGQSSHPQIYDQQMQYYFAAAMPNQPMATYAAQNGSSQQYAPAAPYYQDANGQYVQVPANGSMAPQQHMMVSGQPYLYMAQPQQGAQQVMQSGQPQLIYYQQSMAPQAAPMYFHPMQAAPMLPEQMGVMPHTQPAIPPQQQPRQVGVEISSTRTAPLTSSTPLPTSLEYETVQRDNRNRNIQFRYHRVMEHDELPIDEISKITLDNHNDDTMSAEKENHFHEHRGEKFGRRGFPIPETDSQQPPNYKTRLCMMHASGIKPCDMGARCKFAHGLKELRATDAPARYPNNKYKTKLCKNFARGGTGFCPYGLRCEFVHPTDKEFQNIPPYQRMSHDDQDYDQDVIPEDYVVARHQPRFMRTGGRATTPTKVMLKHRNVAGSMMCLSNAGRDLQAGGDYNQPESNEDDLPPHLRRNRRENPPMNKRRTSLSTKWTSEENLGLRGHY

Hexokinase-1 = biological target: T5, Hexokinase-1 (Homo sapiens, UniProt P19367); experiment: HK1 enzyme activation by HKDC1 hits – biochemical, selectivity assay for HKDC1 activator project, dose response (AID 504762); assay type: functional
T5 sequence (P19367 whole entry): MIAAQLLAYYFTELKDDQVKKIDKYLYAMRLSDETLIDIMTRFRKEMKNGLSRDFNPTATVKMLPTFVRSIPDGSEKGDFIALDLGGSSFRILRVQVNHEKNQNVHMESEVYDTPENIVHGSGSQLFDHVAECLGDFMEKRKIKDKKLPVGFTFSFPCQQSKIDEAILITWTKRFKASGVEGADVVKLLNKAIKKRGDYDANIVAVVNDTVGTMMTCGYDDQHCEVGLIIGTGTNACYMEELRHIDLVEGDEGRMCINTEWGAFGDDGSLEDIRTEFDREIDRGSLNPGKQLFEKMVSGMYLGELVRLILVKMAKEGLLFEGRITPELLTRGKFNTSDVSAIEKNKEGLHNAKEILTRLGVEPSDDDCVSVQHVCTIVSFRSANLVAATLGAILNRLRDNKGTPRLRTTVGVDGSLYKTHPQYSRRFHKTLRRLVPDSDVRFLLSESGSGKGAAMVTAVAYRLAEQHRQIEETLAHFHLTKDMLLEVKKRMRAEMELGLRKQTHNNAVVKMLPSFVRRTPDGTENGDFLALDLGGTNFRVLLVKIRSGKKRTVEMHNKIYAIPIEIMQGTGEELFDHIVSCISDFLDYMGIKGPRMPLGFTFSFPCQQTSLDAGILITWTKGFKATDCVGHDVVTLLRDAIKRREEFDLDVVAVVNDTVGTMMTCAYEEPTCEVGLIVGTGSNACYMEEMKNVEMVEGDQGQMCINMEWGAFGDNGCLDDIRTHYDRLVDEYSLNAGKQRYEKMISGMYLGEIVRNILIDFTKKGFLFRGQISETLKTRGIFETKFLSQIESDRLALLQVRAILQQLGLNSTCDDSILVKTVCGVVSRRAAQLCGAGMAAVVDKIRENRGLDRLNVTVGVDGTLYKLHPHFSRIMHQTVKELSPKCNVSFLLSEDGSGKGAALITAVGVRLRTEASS

Hexokinase HKDC1 = biological target: T6, Hexokinase HKDC1 (Homo sapiens, UniProt Q2TB90); experiment: activation of HKDC1 glucose phosphorylation – biochemical, W721R variant, dose response (AID 504730); assay type: functional
T6 sequence (Q2TB90 whole entry): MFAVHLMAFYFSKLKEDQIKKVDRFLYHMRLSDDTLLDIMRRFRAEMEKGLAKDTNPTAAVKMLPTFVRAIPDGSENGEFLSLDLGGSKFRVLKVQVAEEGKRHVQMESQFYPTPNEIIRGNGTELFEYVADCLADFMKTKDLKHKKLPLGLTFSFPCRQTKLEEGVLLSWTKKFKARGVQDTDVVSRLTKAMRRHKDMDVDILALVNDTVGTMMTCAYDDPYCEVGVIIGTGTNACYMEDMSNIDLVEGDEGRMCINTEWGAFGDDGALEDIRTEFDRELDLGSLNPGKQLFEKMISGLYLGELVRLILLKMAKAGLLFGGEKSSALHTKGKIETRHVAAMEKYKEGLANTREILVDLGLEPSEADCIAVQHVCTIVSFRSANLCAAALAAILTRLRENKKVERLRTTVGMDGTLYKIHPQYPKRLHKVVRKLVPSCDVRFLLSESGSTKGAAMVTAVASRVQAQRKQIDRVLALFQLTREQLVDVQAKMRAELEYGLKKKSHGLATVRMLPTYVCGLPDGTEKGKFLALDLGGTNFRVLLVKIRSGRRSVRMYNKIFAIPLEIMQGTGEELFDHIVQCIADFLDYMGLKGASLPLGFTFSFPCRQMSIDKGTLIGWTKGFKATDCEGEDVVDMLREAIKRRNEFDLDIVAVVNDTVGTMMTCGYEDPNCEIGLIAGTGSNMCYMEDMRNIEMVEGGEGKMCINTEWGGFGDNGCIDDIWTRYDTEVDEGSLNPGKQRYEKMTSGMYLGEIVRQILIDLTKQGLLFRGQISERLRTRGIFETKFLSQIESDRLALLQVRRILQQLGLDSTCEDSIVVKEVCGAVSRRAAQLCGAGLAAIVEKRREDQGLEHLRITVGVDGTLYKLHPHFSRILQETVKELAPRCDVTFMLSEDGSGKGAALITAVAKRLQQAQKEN

Vero = experiment: cells; assay type: functional; settings: Chlorocebus sabaeus
[7] = biological target: T7, Tyrosine-protein phosphatase non-receptor type 22 (Homo sapiens, UniProt Q9Y2R2); experiment: lymphoid phosphatase LYP inhibitors – biochemical, selectivity assay for STEP inhibitor project, dose response (AID 624241); assay type: functional
T7 sequence (Q9Y2R2 whole entry): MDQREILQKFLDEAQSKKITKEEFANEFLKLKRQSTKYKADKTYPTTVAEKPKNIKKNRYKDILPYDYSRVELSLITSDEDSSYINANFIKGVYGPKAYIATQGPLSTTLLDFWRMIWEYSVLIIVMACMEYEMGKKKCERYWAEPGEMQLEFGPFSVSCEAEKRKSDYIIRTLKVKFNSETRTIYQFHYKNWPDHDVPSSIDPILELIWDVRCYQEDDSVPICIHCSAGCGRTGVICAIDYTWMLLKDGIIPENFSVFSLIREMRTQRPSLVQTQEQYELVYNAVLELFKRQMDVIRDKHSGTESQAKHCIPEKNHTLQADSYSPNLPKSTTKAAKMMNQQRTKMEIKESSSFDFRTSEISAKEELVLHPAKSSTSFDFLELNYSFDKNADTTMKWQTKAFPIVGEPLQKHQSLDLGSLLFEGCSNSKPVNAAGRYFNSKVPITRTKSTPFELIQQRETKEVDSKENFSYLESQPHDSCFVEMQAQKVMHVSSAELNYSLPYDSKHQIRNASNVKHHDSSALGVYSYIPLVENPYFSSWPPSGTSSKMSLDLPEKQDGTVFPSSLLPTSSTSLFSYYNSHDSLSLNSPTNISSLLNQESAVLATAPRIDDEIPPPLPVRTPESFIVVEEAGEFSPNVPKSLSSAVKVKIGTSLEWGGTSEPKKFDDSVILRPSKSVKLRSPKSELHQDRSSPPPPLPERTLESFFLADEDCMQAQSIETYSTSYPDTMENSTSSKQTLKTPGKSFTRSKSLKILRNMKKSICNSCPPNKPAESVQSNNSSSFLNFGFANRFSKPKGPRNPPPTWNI

[8] = biological target: Dual specificity protein phosphatase 3 (Homo sapiens, UniProt P51452); experiment: VHR phosphatase inhibition, dose response, selectivity assay for STEP inhibitor project, biochemical (AID 602374); assay type: functional; settings: read-out: IC50_Mean
[9] = biological target: Tyrosine-protein phosphatase non-receptor type 5 (Homo sapiens, UniProt P54829); experiment: PTPN5 enzyme inhibition – biochemical, fluorescence intensity, uHTS hits, confirmation (AID 602372); assay type: functional; settings: read-out: IC50_Mean
[10] = biological target: Tyrosine-protein phosphatase non-receptor type 11 (Homo sapiens, UniProt Q06124); experiment: PTPN11 enzyme inhibitors – biochemical, selectivity assay for STEP inhibitor project, dose response (AID 602367); assay type: functional; settings: read-out: IC50_Mean
[11] = biological target: 5-hydroxytryptamine receptor 2A (Mus musculus, UniProt P35363); assay type: functional, cell-based;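 also: CHO-K1 cells with tagged receptor and beta-arrestin; agonist potency measured as compound-induced activation of the receptor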
Mu-type opioid receptor = Mu-type opioid receptor (Homo sapiens, UniProt P35372); assay type: functional, cell-based;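 also: U2OS cells with beta-arrestin recruitment to OPRM1 by beta-gal complementation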
[12] = biological target: DNA (cytosine-5)-methyltransferase 1 (Homo sapiens, UniProt P26358); experiment: inhibition of DNA methylation by DNMT1 – biochemical, fluorescent molecular beacon, confirmation (AID 602386); assay type: functional
[13] = biological target: T8, Low molecular weight phosphotyrosine protein phosphatase (Homo sapiens, UniProt P24666); assay type: functional; settings: read-out: IC50_Mean
[14] = biological target: T8, Low molecular weight phosphotyrosine protein phosphatase; assay type: functional; settings: read-out: IC50_Mean; remark: listed apart in the source
[15] = bead-based luminescence quenchers, dual-tagged ARNT – biochemical, AlphaScreen, cherry-pick, artefact control for ARNT-TACC3 interaction inhibitor project, dose response (AID 651705); assay type: functional;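 also: AlphaScreen bead proximity signal that flags compounds interfering with the detection technology; potency reflects signal decrease which marks the compound as an assay artifact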
[16] = intracellular Trypanosoma cruzi inhibitors in host cells – cell-based, plate reader, cherry-pick samples, set 3, dose response (AID 651818); assay type: functional;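 also: compounds incubated with infected cells for about four days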
[17] = mouse fibroblast viability loss – cell-based, cherry-pick samples, set 2, cytotoxicity control for T. cruzi growth inhibitor project, dose response (AID 651817); assay type: functional; settings: NIH3T3
[18] = biological target: Arf-GAP with SH3 domain, ANK repeat and PH domain-containing protein 1 (Homo sapiens, UniProt Q9ULH1); assay type: functional;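 also: biochemical fluorescence polarization dose–response screen measuring inhibition of ASAP1; ASAP1 GAP domain stimulating GTP hydrolysis by truncated human ARF1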

T8 sequence (P24666 whole entry): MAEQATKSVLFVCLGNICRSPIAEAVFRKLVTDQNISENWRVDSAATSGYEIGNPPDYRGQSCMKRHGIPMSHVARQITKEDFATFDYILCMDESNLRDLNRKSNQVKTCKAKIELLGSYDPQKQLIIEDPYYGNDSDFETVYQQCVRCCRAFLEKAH
Sequence of Tyrosine-protein phosphatase non-receptor type 11 (Q06124 whole entry): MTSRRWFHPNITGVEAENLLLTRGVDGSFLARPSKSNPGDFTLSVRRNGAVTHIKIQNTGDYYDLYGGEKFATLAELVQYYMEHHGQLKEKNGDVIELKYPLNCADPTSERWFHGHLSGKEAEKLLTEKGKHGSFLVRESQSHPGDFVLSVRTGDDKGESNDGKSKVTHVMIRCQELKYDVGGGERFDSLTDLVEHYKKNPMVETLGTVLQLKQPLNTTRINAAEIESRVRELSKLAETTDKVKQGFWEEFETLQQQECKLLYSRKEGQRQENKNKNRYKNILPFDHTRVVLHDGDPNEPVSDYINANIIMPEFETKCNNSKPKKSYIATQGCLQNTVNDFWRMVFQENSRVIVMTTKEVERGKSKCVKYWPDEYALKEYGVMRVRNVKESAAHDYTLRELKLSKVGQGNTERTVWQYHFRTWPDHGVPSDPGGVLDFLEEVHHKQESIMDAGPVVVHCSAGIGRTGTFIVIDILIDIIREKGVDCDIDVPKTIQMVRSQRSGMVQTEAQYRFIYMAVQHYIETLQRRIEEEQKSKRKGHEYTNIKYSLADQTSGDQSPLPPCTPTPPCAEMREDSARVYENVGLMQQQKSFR
Sequence of DNA (cytosine-5)-methyltransferase 1 (P26358 whole entry): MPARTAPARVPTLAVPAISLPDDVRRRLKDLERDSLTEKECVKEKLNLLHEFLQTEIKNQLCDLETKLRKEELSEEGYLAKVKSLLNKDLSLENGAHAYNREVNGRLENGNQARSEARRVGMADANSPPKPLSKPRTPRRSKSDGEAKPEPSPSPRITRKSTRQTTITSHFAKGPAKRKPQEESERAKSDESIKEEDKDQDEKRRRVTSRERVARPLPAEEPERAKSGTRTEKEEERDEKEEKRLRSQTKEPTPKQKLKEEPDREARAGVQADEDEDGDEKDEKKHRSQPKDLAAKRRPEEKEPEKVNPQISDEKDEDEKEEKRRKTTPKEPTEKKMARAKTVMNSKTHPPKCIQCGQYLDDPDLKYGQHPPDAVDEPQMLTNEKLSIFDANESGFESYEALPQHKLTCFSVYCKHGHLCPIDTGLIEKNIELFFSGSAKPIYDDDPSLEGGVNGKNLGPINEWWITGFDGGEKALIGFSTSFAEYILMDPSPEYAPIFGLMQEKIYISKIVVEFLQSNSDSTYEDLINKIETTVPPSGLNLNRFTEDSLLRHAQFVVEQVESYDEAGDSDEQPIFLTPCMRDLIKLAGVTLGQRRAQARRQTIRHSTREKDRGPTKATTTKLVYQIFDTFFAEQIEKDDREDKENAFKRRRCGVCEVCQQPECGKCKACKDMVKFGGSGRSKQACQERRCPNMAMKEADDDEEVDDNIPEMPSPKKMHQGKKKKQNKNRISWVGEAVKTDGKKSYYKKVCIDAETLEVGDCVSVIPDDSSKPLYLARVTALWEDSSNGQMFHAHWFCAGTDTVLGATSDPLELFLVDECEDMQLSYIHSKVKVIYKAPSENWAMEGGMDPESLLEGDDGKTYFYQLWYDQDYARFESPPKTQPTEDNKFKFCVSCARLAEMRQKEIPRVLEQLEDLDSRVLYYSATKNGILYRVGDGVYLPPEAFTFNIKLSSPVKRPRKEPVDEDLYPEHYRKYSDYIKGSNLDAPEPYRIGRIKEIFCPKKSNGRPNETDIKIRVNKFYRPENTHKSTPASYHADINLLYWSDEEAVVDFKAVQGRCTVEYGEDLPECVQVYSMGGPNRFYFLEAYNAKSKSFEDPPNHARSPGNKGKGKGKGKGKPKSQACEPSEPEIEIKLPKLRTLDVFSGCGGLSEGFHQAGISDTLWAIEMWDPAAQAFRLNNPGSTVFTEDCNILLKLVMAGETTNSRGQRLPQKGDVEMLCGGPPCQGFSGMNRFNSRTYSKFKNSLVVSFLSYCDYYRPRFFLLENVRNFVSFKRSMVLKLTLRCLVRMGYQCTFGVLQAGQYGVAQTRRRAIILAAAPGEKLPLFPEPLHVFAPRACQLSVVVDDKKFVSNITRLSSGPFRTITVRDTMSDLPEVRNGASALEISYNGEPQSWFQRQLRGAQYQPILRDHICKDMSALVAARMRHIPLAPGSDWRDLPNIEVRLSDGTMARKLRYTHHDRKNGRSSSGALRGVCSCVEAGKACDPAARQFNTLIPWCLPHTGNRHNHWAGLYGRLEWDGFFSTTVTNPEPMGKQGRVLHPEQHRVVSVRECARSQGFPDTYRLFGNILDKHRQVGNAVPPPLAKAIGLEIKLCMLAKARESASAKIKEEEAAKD
Sequence of Dual specificity protein phosphatase 3 (P51452 whole entry): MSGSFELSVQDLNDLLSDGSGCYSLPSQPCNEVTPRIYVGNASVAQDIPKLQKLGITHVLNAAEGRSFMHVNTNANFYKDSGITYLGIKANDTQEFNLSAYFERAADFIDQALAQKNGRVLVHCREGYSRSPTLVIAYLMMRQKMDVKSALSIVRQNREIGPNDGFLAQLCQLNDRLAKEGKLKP
Sequence of Hepatocyte nuclear factor 4-alpha (P41235 whole entry, the tested form may be a part): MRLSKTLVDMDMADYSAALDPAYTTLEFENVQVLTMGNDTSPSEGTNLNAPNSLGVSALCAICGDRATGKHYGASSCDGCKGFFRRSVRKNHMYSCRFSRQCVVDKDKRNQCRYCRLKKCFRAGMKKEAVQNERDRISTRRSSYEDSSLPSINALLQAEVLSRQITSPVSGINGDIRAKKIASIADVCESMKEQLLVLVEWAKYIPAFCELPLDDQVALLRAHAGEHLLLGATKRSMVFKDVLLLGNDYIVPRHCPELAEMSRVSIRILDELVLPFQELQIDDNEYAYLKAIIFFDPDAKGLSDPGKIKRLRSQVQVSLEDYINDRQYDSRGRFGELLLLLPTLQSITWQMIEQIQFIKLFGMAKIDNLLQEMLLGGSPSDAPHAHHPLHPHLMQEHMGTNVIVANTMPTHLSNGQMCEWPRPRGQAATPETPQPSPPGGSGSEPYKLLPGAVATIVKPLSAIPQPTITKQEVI
Sequence of Tyrosine-protein phosphatase non-receptor type 5 (P54829 whole entry): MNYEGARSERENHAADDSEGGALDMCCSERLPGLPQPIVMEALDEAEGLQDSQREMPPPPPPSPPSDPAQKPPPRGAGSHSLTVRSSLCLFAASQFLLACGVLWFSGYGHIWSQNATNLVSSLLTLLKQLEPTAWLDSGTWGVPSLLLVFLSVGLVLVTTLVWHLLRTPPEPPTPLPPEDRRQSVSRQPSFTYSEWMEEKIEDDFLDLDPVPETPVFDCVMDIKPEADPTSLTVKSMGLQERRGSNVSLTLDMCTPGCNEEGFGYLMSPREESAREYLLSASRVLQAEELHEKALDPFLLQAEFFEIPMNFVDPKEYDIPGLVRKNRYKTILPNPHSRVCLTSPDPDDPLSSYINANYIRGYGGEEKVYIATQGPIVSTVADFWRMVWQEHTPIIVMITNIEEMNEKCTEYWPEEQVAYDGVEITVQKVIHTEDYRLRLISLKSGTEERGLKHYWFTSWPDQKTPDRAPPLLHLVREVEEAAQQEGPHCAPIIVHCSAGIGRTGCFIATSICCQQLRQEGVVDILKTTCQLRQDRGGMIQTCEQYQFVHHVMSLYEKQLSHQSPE
Sequence of 5-hydroxytryptamine receptor 2A (P35363 whole entry): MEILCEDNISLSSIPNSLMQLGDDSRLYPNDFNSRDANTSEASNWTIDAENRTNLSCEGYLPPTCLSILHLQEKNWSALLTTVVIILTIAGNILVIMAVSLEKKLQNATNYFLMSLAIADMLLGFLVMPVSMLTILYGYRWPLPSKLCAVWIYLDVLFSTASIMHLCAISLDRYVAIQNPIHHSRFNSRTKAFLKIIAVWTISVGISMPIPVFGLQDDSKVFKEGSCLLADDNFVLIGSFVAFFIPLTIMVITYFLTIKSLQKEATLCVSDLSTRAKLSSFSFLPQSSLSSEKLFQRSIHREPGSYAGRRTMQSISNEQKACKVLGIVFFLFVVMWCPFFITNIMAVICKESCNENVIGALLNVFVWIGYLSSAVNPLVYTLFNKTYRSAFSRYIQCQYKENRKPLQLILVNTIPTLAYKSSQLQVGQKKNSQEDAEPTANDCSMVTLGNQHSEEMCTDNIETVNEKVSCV
Sequence of Mu-type opioid receptor (P35372 whole entry): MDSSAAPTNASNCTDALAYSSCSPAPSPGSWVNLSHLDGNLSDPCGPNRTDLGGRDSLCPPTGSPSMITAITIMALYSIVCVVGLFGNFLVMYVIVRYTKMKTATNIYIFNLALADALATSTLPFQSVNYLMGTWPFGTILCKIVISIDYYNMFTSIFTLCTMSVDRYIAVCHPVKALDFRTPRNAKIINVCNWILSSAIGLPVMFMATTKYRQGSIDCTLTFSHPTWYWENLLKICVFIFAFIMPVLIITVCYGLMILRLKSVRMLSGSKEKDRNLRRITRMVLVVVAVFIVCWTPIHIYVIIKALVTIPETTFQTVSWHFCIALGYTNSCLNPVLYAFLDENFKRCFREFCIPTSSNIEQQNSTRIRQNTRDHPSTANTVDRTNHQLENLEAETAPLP

SMILES: CC(=O)C1=C(c2cccc([N+](=O)[O-])c2)N(C(C)=O)n2c(C)nnc2S1
- EC50 (Beta-galactosidase): 15 µM (active)
- IC50 [1]: 8.72 µM (active)
- EC50 [2]: 44.2 µM (active)
- IC50 [3]: 4.27 µM (active)
- EC50 [4]: 20.5 µM (inactive)
- EC50 [5]: 45.2 µM (inactive)
- EC50 [6]: > 300 µM (inconclusive)
- EC50 (Hexokinase-1): 6.54 µM (active)
- EC50 (Hexokinase HKDC1): 8.32 µM (active)
- CC50 (Vero): 24.4 µM (active)

SMILES: CCC(CC)c1nnc(NC(=O)c2cc(C(=O)OC)cc([N+](=O)[O-])c2)s1
- IC50 [7]: 75.6 µM (inactive)
- IC50 [8]: 0.567 µM (active)
- IC50 [9]: 8.62 µM (active)
- IC50 [10]: 2.28 µM (active)

SMILES: COc1ccc(C)cc1NC(=O)CCN1CCN(c2ccccc2F)CC1
- EC50 [11]: 76.1 µM (inactive)
- EC50 (Mu-type opioid receptor): 92.5 µM (inactive)

SMILES: Cc1ccc(-c2nn(-c3ccccc3)cc2C=C2SC(=S)N(CCS(=O)(=O)O)C2=O)cc1
- IC50 [12]: 4.93 µM (active)
- IC50 [13]: 10.4 µM (active)
- IC50 [14]: > 80 µM (inactive)

SMILES: C[C@@H]1CN([C@@H](C)CO)C(=O)c2cc(NC(=O)CCCN(C)C)ccc2O[C@@H](C)CCCCO[C@H]1CN(C)C(=O)Nc1cccc2ccccc12
- AC50 [15]: 74.8 µM (active)

SMILES: Cc1ccc(S(=O)(=O)Nc2ccc3c(c2)CC(=O)N([C@@H](C)CO)C[C@H](C)[C@@H](CN(C)Cc2ccc(Cl)c(Cl)c2)O3)cc1
- AC50 [16]: 3.89 µM (active)
- AC50 [17]: 8.45 µM (active)

SMILES: O=[N+]([O-])c1ccc(OCCOc2ccccc2/C=N/n2cnnc2)cc1
- IC50 [18]: 22.5 µM (inactive)
